Counter-ions that a name gives are not always drawn. Like-named read-outs stand apart in the source and are kept apart here.
Assays:
[1] = Metabolic stability in human liver microsomes, unbound intrinsic clearance (Cl int/fu mic); assay type: in vitro ADME; settings: 0.5 μM compound, NADPH; for CLint scaled at 0.5 μM: pH 7.4, human liver microsomes 0.25 mg/mL, read-out: Cl int, mic unb. (h) [l/h/kg] (unbound intrinsic clearance, human)
Protocol: Samples of the tested compounds (0.5 μM) were preincubated together with human liver microsomes (0.25 mg of microsomal protein/mL) in 0.05 M potassium phosphate buffer of pH 7.4 in microtiter plates at 37° C. for 5 minutes. The reaction was started by adding NADPH (1.0 mM). After 0, 5, 10, 15, 20 and 30 minutes, an aliquot was removed, the reaction was cooled and stopped by adding twice the amount of quench solution consisting of acetonitrile/methanol 1:1, and containing 0.2 μM carbutamide as internal standard. The samples were frozen until analyzed. The remaining concentration of undegraded test substance was determined by liquid chromatography-tandem mass spectrometry (LC-MS/MS). The half-life (t1/2) was determined from the gradient of the ratio of the signal of (test substance/internal standard)/unit time plot, allowing the calculation of the half-life of the test substance, assuming first order kinetics, from the decrease in the concentration of the compound with time. The microsomal clearance ([…]) was calculated as follows: […]=((ln(2)/t 1⁄2)/Microsomal Protein Concentration (mg/ml))*1000, leading to the unit of uL/min/mg. The scaled clearance (mClin_scaled) was calculated as […]_scaled=m CLint*(Microsomal Yield (mg/kg BW))/1000000*60, leading to the units L/h/kg. The Microsomal Yield is defined by the specifics of the used microsomes. Calculations were modified from references: Di, The Society for Biomolecular Screening, 2003, 453-462; Obach, D M D, 1999 vol 27. N 11, 1350-1359. A suspension of 0.25 mg/ml microsomal protein spiked with 0.5 μM of test compound was pipetted on one side of a HTDialysis device (HTDialysis LLC, 37 Ledgewood Drive, Gales Fery CT 06335) separated by a membrane with a MWcut off 12-14 K. 50 mM K-Phosphate buffer (pH 7.4) was added on the other side of the well. After incubation at 37° C. for 4 h while shaking at 150 rpm, aliquots of both sides were taken, quenched with MeOH/ACN 1:1 and 0.2 μM of internal standard and frozen until analysis by LCMSMS Cl int unbound=Cl int/fu mic

[2] = target: T1, 5-HT2C receptor (Homo sapiens, UniProt P28335); test: Human 5-HT2C functional assay (beta-arrestin2 recruitment, U2OS_HTR2C_β-Arrestin cells); assay type: cell-based; settings: for EC50: beta-arrestin2 recruitment, U2OS_HTR2C_β-Arrestin cells, 1.5 h incubation, read-out: EC50 5-HT2C (potency in functional assay)
T1 construct: host or cells: U2OS
Protocol: The functional activity of compounds of formula I was assayed by incubation with U2OS_HTR2C_β-Arrestin cells (DiscoverX, 93-0289C3) to induce beta-arrestin2 recruitment to the 5-HT2C receptor. The agonist-induced recruitment and proximity of the receptor and beta-arrestin2 leads to complementation and formation of active β-galactosidase. The enzyme complementation results in enzyme activity, which is measured following the termination of the agonist incubation using DiscoveRx's detection reagent, which contains a chemiluminescent substrate which produces a high intensity signal. Cells were plated and a medium-change to a 1% serum containing medium was performed 24h later. The next day, test compounds were added and incubated for 1.5 h before addition of detection reagent.
The response produced was measured and compared with the response produced by 10 [mu]M 5-HT or the maximal effect induced by 5-HT (defined as 100%) to which it was expressed as a percentage response (relative efficacy). Dose response curves were constructed using Graphpad Prism (Graph Software Inc.) or using in house adapted software using a 4 parameter dose response model with variable slope (fit=(Bottom+(Top-Bottom)/(1+10^∧((Log EC50−x)*HillSlope))res=(y-fit)). Results are compiled in the table below.

[3] = relative efficacy vs response to 10 μM 5-HT or maximal 5-HT effect (100%)

T1 sequence (P28335 33-458): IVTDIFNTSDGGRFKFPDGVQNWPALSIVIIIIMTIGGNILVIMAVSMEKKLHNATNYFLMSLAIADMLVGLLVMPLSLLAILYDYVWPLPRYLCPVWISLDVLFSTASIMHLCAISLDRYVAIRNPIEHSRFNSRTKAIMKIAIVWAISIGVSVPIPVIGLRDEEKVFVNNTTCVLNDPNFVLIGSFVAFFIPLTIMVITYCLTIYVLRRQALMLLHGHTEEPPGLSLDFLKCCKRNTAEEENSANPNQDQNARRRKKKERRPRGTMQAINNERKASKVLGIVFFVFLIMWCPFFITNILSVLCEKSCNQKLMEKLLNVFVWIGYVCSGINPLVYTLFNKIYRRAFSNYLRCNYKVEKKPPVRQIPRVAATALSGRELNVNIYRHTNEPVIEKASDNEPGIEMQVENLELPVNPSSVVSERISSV
T1 sequence (P32121 whole entry partner): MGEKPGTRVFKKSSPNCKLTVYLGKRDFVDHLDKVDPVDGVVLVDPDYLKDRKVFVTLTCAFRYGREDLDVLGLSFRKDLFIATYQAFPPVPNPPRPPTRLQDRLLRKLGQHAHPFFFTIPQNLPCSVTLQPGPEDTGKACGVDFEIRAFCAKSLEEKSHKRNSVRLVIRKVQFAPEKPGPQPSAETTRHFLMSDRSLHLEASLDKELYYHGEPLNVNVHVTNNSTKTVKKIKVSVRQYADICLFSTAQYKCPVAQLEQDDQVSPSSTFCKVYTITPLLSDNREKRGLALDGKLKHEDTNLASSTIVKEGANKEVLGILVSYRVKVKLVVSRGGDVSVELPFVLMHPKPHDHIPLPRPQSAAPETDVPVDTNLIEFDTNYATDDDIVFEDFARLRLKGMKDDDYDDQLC

| Structure (SMILES) | Cl int, mic unb. (h) [l/h/kg] (unbound intrinsic clearance, human) ([1]; human liver microsomes 0.25 mg/mL) | EC50 [2] [nM] | % efficacy [2, 3] | CLint scaled at 0.5 μM ([1]; human, liver microsomes) [L/h/kg] | Emax [2, 3] [%] | CLint scaled at 0.5 μM [1] [L/h/kg] |
| --- | --- | --- | --- | --- | --- | --- |
| COc1nc(OC2CCC(C(C)(F)F)CC2)c(F)cc1CNC(=O)[C@@H]1CCCN1 (single isomer, unassigned; isomer 2) [Example 74] | ++ (from 5 to <50 l/h/kg) | < 20 | +++ (>70%) | – | – | – |
| COc1nc(OC2CCC(C(F)(F)F)CC2)c(F)cc1CNC(=O)[C@@H]1C[C@@H](C)CN1 (stereo partly drawn) [Example 60, (2S,4R)—N-[[5-Fluoro-2-methoxy-6-[4-(trifluoromethyl)cyclohexoxy]-3-pyridyl]methyl]-4-methyl-pyrrolidine-2-carboxamide Hydrochloride] | – | 20 to 200 | – | 50 to 500 | 50 to 70 | – |
| COc1nc(OC2CC(F)(F)C2)c(F)cc1CNC(=O)[C@@H]1C[C@@H](F)CN1 [Example 94, (2S,4R)—N-[[6-(3,3-Difluorocyclobutoxy)-5-fluoro-2-methoxy-3-pyridyl]methyl]-4-fluoro-pyrrolidine-2-carboxamide Hydrochloride] | – | < 20 | – | < 5 | > 70 | – |
| COc1nc(C2=CCC(OC)CC2)c(F)cc1CNC(=O)[C@@H]1CCCN1 (stereo partly drawn) [Example 167, (2S)—N-[[5-Fluoro-2-methoxy-6-(4-methoxycyclohexen-1-yl)-3-pyridyl]methyl]-pyrrolidine-2-carboxamide] | – | 200 to 1000 | – | < 5 | > 70 | – |
| COc1nc(OCC2CCCCC2)c(F)cc1CNC(=O)[C@@H]1CCCN1 [Example 3, (2S)—N-[[6-(Cyclohexylmethoxy)-5-fluoro-2-methoxy-3-pyridyl]methyl]pyrrolidine-2-carboxamide; 2,2,2-trifluoroacetic acid] | – | < 20 | – | 5 to 50 | > 70 | – |
| COc1nc(OCC2(C(F)F)CC2)c(F)cc1CNC(=O)[C@@H]1CCCN1 [Example 97, (2S)—N-[[6-[[1-(Difluoromethyl)cyclopropyl]methoxy]-5-fluoro-2-methoxy-3-pyridyl]methyl]pyrrolidine-2-carboxamide; (2S,3S)-2,3-dihydroxybutanedioic Acid] | – | < 20 | – | < 5 | > 70 | – |
| COc1nc(OCC2CCC(F)(F)CC2)c(F)cc1CNC(=O)[C@@H]1CCCN1C [Example 9, (2S)—N-[[6-[(4,4-Difluorocyclohexyl)methoxy]-5-fluoro-2-methoxy-3-pyridyl]methyl]-1-methyl-pyrrolidine-2-carboxamide; Fumaric Acid] | – | < 20 | – | 5 to 50 | > 70 | – |
| COc1nc(OC2CCC3(CC2)CC3(F)F)c(F)cc1CNC(=O)[C@@H]1CCCN1 (stereo partly drawn) [Example 118, (2S)—N-[[6-(2,2-Difluorospiro[2.5]octan-6-yl)oxy-5-fluoro-2-methoxy-3-pyridyl]methyl]pyrrolidine-2-carboxamide; 2,2,2-trifluoroacetic Acid] | – | < 20 | – | 5 to 50 | > 70 | – |
| COc1nc(C2CCCCC2)c(F)cc1CNC(=O)[C@@H]1CCCN1 [Example 132, (2S)—N-[(6-Cyclohexyl-5-fluoro-2-methoxy-3-pyridyl)methyl]pyrrolidine-2-carboxamide; 2,2,2-trifluoroacetic Acid] | – | < 20 | – | 50 to 500 | > 70 | – |
| COc1nc(OC2CCCC2F)c(F)cc1CNC(=O)[C@@H]1CCCN1 (stereo partly drawn) [Example 93, (2S)—N-[[5-Fluoro-6-(2-fluorocyclopentoxy)-2-methoxy-3-pyridyl]methyl]-pyrrolidine-2-carboxamide; 2,2,2-trifluoroacetic Acid] | – | < 20 | – | < 5 | > 70 | – |
| COc1nc(OCC2CC(F)(F)C2)c(F)cc1CNC(=O)[C@@H]1CCCN1 [Example 42, (2S)—N-[[6-[(3,3-Difluorocyclobutyl)methoxy]-5-fluoro-2-methoxy-3-pyridyl]-methyl]pyrrolidine-2-carboxamide; Succinic Acid] | – | < 20 | – | < 5 | > 70 | – |
| COc1nc(C2CCCOC2)c(F)cc1CNC(=O)[C@@H]1CCCN1 (stereo partly drawn) [Example 158, (2S)—N-[(5-Fluoro-2-methoxy-6-tetrahydropyran-3-yl-3-pyridyl)methyl]-pyrrolidine-2-carboxamide Hydrochloride] | – | 20 to 200 | – | < 5 | > 70 | – |
| COc1nc(OC2CCC(OC)CC2)c(F)cc1CNC(=O)[C@@H]1CCCN1C (stereo partly drawn) [Example 13, (2S)—N-[[5-Fluoro-2-methoxy-6-(4-methoxycyclohexoxy)-3-pyridyl]methyl]-1-methyl-pyrrolidine-2-carboxamide; Fumaric Acid] | – | 20 to 200 | – | < 5 | > 70 | – |
| COc1nc(-c2ccccc2)c(F)cc1CNC(=O)[C@@H]1CCCN1 [Example 125, (2S)—N-[(5-Fluoro-2-methoxy-6-phenyl-3-pyridyl)methyl]pyrrolidine-2-carboxamide; 2,2,2-trifluoroacetic Acid] | – | 200 to 1000 | – | 5 to 50 | > 70 | – |
| COc1nc(OCC(F)(F)C(F)(F)C(F)(F)F)c(F)cc1CNC(=O)[C@@H]1CCCN1 [Example 110, (2S)—N-[[5-Fluoro-6-(2,2,3,3,4,4,4-heptafluorobutoxy)-2-methoxy-3-pyridyl]-methyl]pyrrolidine-2-carboxamide Hydrochloride] | – | < 20 | – | – | > 70 | 5 to 50 |
| COc1nc(OC2CC(OC)C2)c(F)cc1CNC(=O)[C@@H]1CCCN1 (stereo partly drawn) [Example 104, (2S)—N-[[5-Fluoro-2-methoxy-6-(3-methoxycyclobutoxy)-3-pyridyl]methyl]-pyrrolidine-2-carboxamide Hydrochloride] | – | < 20 | – | < 5 | > 70 | – |
| COc1nc(OC2CCC(C(F)F)CC2)c(F)cc1CNC(=O)[C@@H]1CCCN1 (stereo partly drawn) [Example 66, (2S)—N-[[6-[4-(Difluoromethyl)cyclohexoxy]-5-fluoro-2-methoxy-3-pyridyl]methyl]-pyrrolidine-2-carboxamide hydrochloride] | – | < 20 | – | 5 to 50 | > 70 | – |
| COc1nc(OCC(F)(F)C(F)(F)F)c(F)cc1CNC(=O)[C@@H]1CCCN1 [Example 18, (2S)—N-[[5-Fluoro-2-methoxy-6-(2,2,3,3,3-pentafluoropropoxy)-3-pyridyl]methyl]-pyrrolidine-2-carboxamide; Succinic Acid] | – | < 20 | – | < 5 | > 70 | – |
| COc1nc(OCC2CC(F)(F)C2(F)F)c(F)cc1CN(C)C(=O)[C@@H]1CCCN1C (stereo partly drawn) [Example 103, (2S)—N-[[5-Fluoro-2-methoxy-6-[(2,2,3,3-tetrafluorocyclobutyl)methoxy]-3-pyridyl]methyl]-N,1-dimethyl-pyrrolidine-2-carboxamide Hydrochloride] | – | 20 to 200 | – | < 5 | 50 to 70 | – |
| COc1nc(N2CCC(Oc3ccccc3)CC2)c(F)cc1CNC(=O)[C@@H]1CCCN1 [Example 195, (2S)—N-[[5-Fluoro-2-methoxy-6-(4-phenoxy-1-piperidyl)-3-pyridyl]methyl]-pyrrolidine-2-carboxamide; 2,2,2-trifluoroacetic Acid] | – | 20 to 200 | – | 50 to 500 | > 70 | – |
